# Where two headings read alike, the source gives them in different places.
# Test system: T. brucei lysate proteins
# Format: binding, Trypanosoma brucei
smiles,measurement,setting,value
CCCCCCOc1ccc(Cc2cnc(N)nc2N)cc1 [compound 1],fold change,"relative to vehicle control = 1, protein TB09.160.3270 ATP-DEPENDENT DEAD BOX HELICASE, PUTATIVE",0.99
same,fold change,"relative to vehicle control = 1, protein TB09.160.4250 TR[…]",0.87
same,fold change,"relative to vehicle control = 1, protein TB09.211.3540 GLYCEROL KINASE, GLYCOSOMAL",0.92
same,fold change,"relative to vehicle control = 1, protein TB11.01.0450 PROTEIN PHOSPHATASE 1, PUTATIVE",0.96
same,fold change,"relative to vehicle control = 1, protein TB11.01.1270 NUCLEIC ACID BINDING PROTEIN, PUTATIVE",0.97
same,fold change,"relative to vehicle control = 1, protein TB11.01.1290 14-3-3-I PROTEIN",0.77
same,fold change,"relative to vehicle control = 1, protein TB11.02.1135 DYNEIN LIGHT CHAIN, PUTATIVE",0.88
same,fold change,"relative to vehicle control = 1, protein TB11.02.4700 14-3-3 PROTEIN",0.96
same,fold change,"relative to vehicle control = 1, protein TB11.03.0815 DYNEIN LIGHT CHAIN",0.76
same,fold change,"relative to vehicle control = 1, protein TB11.50.0007 DYNEIN LIGHT CHAIN LC8, PUTATIVE",0.99
same,fold change,"relative to vehicle control = 1, protein TB427TMP.01.1400 GLYCYL-TRNA SYNTHETASE, PUTATIVE",0.88
same,fold change,"relative to vehicle control = 1, protein TB427TMP.01.1830 HY[…], CONSERVED",0.86
same,fold change,"relative to vehicle control = 1, protein TB427TMP.01.3370 […] PROTEIN, PUTATIVE",0.94
same,fold change,"relative to vehicle control = 1, protein TB427TMP.01.6880 CYTOSOLIC COAT PROTEIN, PUTATIVE",0.88
same,fold change,"relative to vehicle control = 1, protein TB427TMP.01.7490 HY[…], CONSERVED",0.95
same,fold change,"relative to vehicle control = 1, protein TB427TMP.01.7530 HY[…], CONSERVED",0.92
same,fold change,"relative to vehicle control = 1, protein TB427TMP.02.0750 T-COMPLEX PROTEIN 1, ZETA SUBUNIT, PUTATIVE",0.94
same,fold change,"relative to vehicle control = 1, protein TB427TMP.02.1120 ADENYL[…], PUTATIVE",0.93
same,fold change,"relative to vehicle control = 1, protein TB427TMP.02.1460 HY[…], CONSERVED",0.82
same,fold change,"relative to vehicle control = 1, protein TB427TMP.02.3120 MALIC ENZYME, PUTATIVE",0.77
same,fold change,"relative to vehicle control = 1, protein TB427TMP.02.4550 HY[…], CONSERVED",0.91
same,fold change,"relative to vehicle control = 1, protein TB427TMP.02.5450 GLUCOSE-REGULATED PROTEIN 78, PUTATIVE",0.89
same,fold change,"relative to vehicle control = 1, protein TB427TMP.02.5660 HY[…], CONSERVED",0.82
same,fold change,"relative to vehicle control = 1, protein TB427TMP.03.0090 RIBOKINASE, PUTATIVE",0.87
same,fold change,"relative to vehicle control = 1, protein TB427TMP.03.0460 HY[…], CONSERVED",0.85
same,fold change,"relative to vehicle control = 1, protein TB427TMP.160.4770 PROTEIN KINASE, PUTATIVE",0.92
same,fold change,"relative to vehicle control = 1, protein TB427TMP.160.4910 FLAVOPROTEIN MONOOXYGENASE, PUTATIVE",0.89
same,fold change,"relative to vehicle control = 1, protein TB427TMP.22.0004 HY[…], CONSERVED",0.97
same,fold change,"relative to vehicle control = 1, protein TB427.01.3830 GLUCOSE-6-PHOSPHATE ISOMERASE, GLYCOSOMAL",1
same,fold change,"relative to vehicle control = 1, protein TB427.01.4050 PROTEIN P[…] EF-HAND DOMAINS (PPEF)",0.94
same,fold change,"relative to vehicle control = 1, protein TB427.02.1170 RETRO[…] SPOT (RHS) PROTEIN, PUTATIVE",0.85
same,fold change,"relative to vehicle control = 1, protein TB427.02.6220 ADENOSINE TRANSPORTER 2, PUTATIVE",0.95
same,fold change,"relative to vehicle control = 1, protein TB427.03.3160 POLY(A) POLYMERASE",0.97
same,fold change,"relative to vehicle control = 1, protein TB427.03.3560 HY[…], CONSERVED",0.92
same,fold change,"relative to vehicle control = 1, protein TB427.03.4190 ENDOSOMAL INTEGRAL MEMBRANE PROTEIN, PUTATIVE",0.99
same,fold change,"relative to vehicle control = 1, protein TB427.03.5420 PROTEIN TRANSPORT PROTEIN SEC24",0.8
same,fold change,"relative to vehicle control = 1, protein TB427.04.1510 PHOSPHOLIPID-TRA[…], PUTATIVE",0.88
same,fold change,"relative to vehicle control = 1, protein TB427.05.1320 HY[…], CONSERVED",0.97
same,fold change,"relative to vehicle control = 1, protein TB427.05.300 THYMINE-7-HYDROXYLASE, PUTATIVE",0.92
same,fold change,"relative to vehicle control = 1, protein TB427.05.3800 GLUTAMINE HYDROLYSING (NOT AMMONIA-DEPENDENT) […] PHOSPHATE SYNTHASE, PUTATIVE",0.88
same,fold change,"relative to vehicle control = 1, protein TB427.05.4530 FATTY ACID ELONGASE, PUTATIVE",0.75
same,fold change,"relative to vehicle control = 1, protein TB427.06.2550 RNA-BINDING PROTEIN, PUTATIVE",0.89
same,fold change,"relative to vehicle control = 1, protein TB427.06.3650 ADP-RI[…], PUTATIVE",0.84
same,fold change,"relative to vehicle control = 1, protein TB427.06.3860 HY[…], CONSERVED",0.55
same,fold change,"relative to vehicle control = 1, protein TB427.07.2340 40S RIBOSOMAL PROTEIN S15, PUTATIVE",0.82
same,fold change,"relative to vehicle control = 1, protein TB427.07.2570 MRNA […], PUTATIVE",0.69
same,fold change,"relative to vehicle control = 1, protein TB427.07.7500 THYMINE-7-HYDROXYLASE, PUTATIVE",0.94
same,fold change,"relative to vehicle control = 1, protein TB427.08.3150 T-COMPLEX PROTEIN 1, GAMMA SUBUNIT, PUTATIVE",0.9
same,fold change,"relative to vehicle control = 1, protein TB427.08.3490 HY[…], CONSERVED",0.94
same,fold change,"relative to vehicle control = 1, protein TB427.08.5460 FLAGELLAR CALCIUM-BINDING PROTEIN",0.99
same,fold change,"relative to vehicle control = 1, protein TB427.08.6110 HY[…], CONSERVED",0.71
same,fold change,"relative to vehicle control = 1, protein TB427.10.11930 NAD OR NADP DEPENDENT OXIDOREDUCTASE, PUTATIVE",0.63
same,fold change,"relative to vehicle control = 1, protein TB427.10.12510 P-TYPE H+-ATPASE, PUTATIVE",0.99
same,fold change,"relative to vehicle control = 1, protein TB427.10.13110 DYNEIN LIGHT CHAIN, PUTATIVE",0.86
same,fold change,"relative to vehicle control = 1, protein TB427.10.13880 HY[…], CONSERVED",0.88
same,fold change,"relative to vehicle control = 1, protein TB427.10.14140 PYRUVATE KINASE 1",0.98
same,fold change,"relative to vehicle control = 1, protein TB427.10.14910 SA[…] GLYCOPROTEIN, PUTATIVE",1
same,fold change,"relative to vehicle control = 1, protein TB427.10.15180 […] PROTEIN, PUTATIVE",0.82
same,fold change,"relative to vehicle control = 1, protein TB427.10.2350 PYRUVATE DEH[…] E3 BINDING PROTEIN, PUTATIVE",0.7
same,fold change,"relative to vehicle control = 1, protein TB427.10.4940 NUCLEAR DBF2-RELATED KINASE",0.93
same,fold change,"relative to vehicle control = 1, protein TB427.10.7630 HY[…], CONSERVED",0.98
same,fold change,"relative to vehicle control = 1, protein TB427.10.9800 60S RIBOSOMAL PROTEIN L22",1
same,fold change,"relative to vehicle control = 1, protein TB927.10.12840 MIT[…] PROTEIN, PUTATIVE",0.8
same,fold change,"relative to vehicle control = 1, protein TB927.10.13780 GLYCOGEN SYNTHASE KINASE 3",0.99
same,fold change,"relative to vehicle control = 1, protein TB927.10.14980 INTR[…] PROTEIN IFT52, PUTATIVE",0.96
same,fold change,"relative to vehicle control = 1, protein TB927.1.2330 BETA TUBULIN",0.9
same,fold change,"relative to vehicle control = 1, protein TB927.1.2400 ALPHA TUBULIN",0.89
same,fold change,"relative to vehicle control = 1, protein TB927.10.3280 60S RIBOSOMAL PROTEINS L38, PUTATIVE",0.97
same,fold change,"relative to vehicle control = 1, protein TB927.10.4180 TFIIF-[…] PHOSPHATASE, PUTATIVE",0.98
same,fold change,"relative to vehicle control = 1, protein TB927.10.5330 40S RIBOSOMAL PROTEIN S18, PUTATIVE",1.1
same,fold change,"relative to vehicle control = 1, protein TB927.10.5500 HY[…], CONSERVED",0.92
same,fold change,"relative to vehicle control = 1, protein TB927.10.6670 DYNEIN LIGHT CHAIN, PUTATIVE",0.95
same,fold change,"relative to vehicle control = 1, protein TB927.2.2440 […]-ATPASE SUBUNIT 6",0.96
same,fold change,"relative to vehicle control = 1, protein TB927.2.2510 HY[…], CONSERVED",0.96
same,fold change,"relative to vehicle control = 1, protein TB927.2.3800 MRNA […], PUTATIVE",0.87
same,fold change,"relative to vehicle control = 1, protein TB927.3.1120 GTP-BINDING NUCLEAR PROTEIN RTB2, PUTATIVE",0.91
same,fold change,"relative to vehicle control = 1, protein TB927.3.3490 HIGH MOBILITY GROUP PROTEIN, PUTATIVE",0.88
same,fold change,"relative to vehicle control = 1, protein TB927.4.4650 […] SYNTHASE, PUTATIVE",0.79
same,fold change,"relative to vehicle control = 1, protein TB927.4.5310 SERINE/THREONINE-PROTEIN KINASE A, PUTATIVE",0.99
same,fold change,"relative to vehicle control = 1, protein TB927.5.1930 HY[…], CONSERVED",0.78
same,fold change,"relative to vehicle control = 1, protein TB927.6.2200 HY[…], CONSERVED",0.92
same,fold change,"relative to vehicle control = 1, protein TB927.6.4140 PAR[…] COMPONENT, PUTATIVE",0.9
same,fold change,"relative to vehicle control = 1, protein TB927.7.2500 […] SUBUNIT 1",0.95
same,fold change,"relative to vehicle control = 1, protein TB927.7.2700 NADH-CYTOCHROME B5 REDUCTASE, PUTATIVE",0.76
same,fold change,"relative to vehicle control = 1, protein TB927.7.4480 ADENOSINE 5'-[…], PUTATIVE",0.83
same,fold change,"relative to vehicle control = 1, protein TB927.7.4500 HY[…], CONSERVED",0.97
same,fold change,"relative to vehicle control = 1, protein TB927.8.1510 ATP-DEPENDENT DEAD/H RNA HELICASE, PUTATIVE",0.94
same,fold change,"vs vehicle control, protein TB09.160.3710 PRO[…] NUCLEAR ANTIGEN (PCNA), PUTATIVE",0.96
same,fold change,"vs vehicle control, protein TB11.01.4370 HY[…], CONSERVED",0.98
same,fold change,"vs vehicle control, protein TB427TMP.01.5690 DRBD4",0.94
same,fold change,"vs vehicle control, protein TB427.01.1670 HY[…], CONSERVED",0.91
same,fold change,"vs vehicle control, protein TB427.04.760 GAMMA-ADAPTIN 1, PUTATIVE",0.93
same,fold change,"vs vehicle control, protein TB427.07.1420 HY[…], CONSERVED",0.92
same,fold change,"vs vehicle control, protein TB427.10.11760 PUMILIO/PUF RNA BINDING PROTEIN 6",0.96
same,fold change,"vs vehicle control, protein TB427.10.2290 CHAPERONE PROTEIN DNAJ, PUTATIVE",0.8
same,fold change,"vs vehicle control, protein TB927.5.1630 HY[…], CONSERVED",0.91

# Reference: publication PMC6199744, “Development of Chemical Proteomics for the Folateome and Analysis of the Kinetoplastid Folateome” (ACS Infectious Diseases, 2018)
